Columns and labels:
[1] = test system: MHCC97H (human liver cancer cell line); experiment: MHCC97H liver cancer xenograft model; assay type: in vivo, BALB/C nude mouse; settings: 30 mg/kg p.o., q.d. x 4 weeks
Procedure: The antitumor activity of huAbF46-H4-A1(IgG2 Fc) was evaluated in a BALB/C nude mouse MHCC97H (human liver cancer cell line) xenograft model (referring to Example 16.2). Approximately 3 million MHCC97H cells in 100 μL of serum-free media were injected via s.c. to each of the 140 mice under anesthesia by 1-2% isoflurane. Ten days after subcutaneous inoculation with MHCC97H tumor cells, dosing commenced in the following treatment groups: 0 (PBS vehicle), 0.2, 1, 5 or 10 mg/kg huAbF46-H4-A1 (IgG2 Fc) i.v., q.w.×4 weeks; 30 mg/kg sorafenib p.o., q.d.×4 weeks (positive control). Each group consisted of 15 mice. Tumor volumes and body weights were measured two to three times a week for total study period about 4 weeks. The tumor volume (V) was calculated as follows: V (mm^3)={long axis length (mm)×(short axis length (mm))^2}/2.

Akt = Akt phosphorylation in Caki-1 cells (phospho-AKT1 Ser473 ELISA); assay type: cell-based; settings: 5 ug/ml, 30 minutes (FIG. 8B)
Procedure: (§1) To compare agonism of the 4 types of antibodies having improved affinities, as prepared in Example 5, Caki-1 cells (Korean Cell Line Bank) were used to confirm the degree of Akt phosphorylation. Mouse IgG was used as a negative control, and antibody 5D5 (a known agonist) was used as a positive control.
(§2) 2×10^5 cells/ml of Caki-1 cells were introduced to a 96-well plate, and after 24 hours, each of 5 ug/ml of the antibodies was treated in serum free medium for 30 minutes. Lysis of the cells treated with the antibodies was performed and the degree of Akt phosphorylation was measured using a PathScan phospho-AKT1 (Ser473) chemiluminescent Sandwich ELISA kit (Cell Signaling, cat. no #7134S).
as §1, with “3” for “4”, “11,” for “5,”, “and a 5D5” for “and”, “antibody” for “antibody 5D5”
as §2, with “with” for “with the”, “and a” for “and the”, “phosphorylation inhibition” for “phosphorylation”, “(Ser473) a” for “(Ser473)”

| Molecule | tumor growth (in words) [1] | activity of Akt phosphorylation inhibition compared to huAbF46-H4-A1(IgG2 Fc) (Akt) |
| --- | --- | --- |
| CNC(=O)c1cc(Oc2ccc(NC(=O)Nc3ccc(Cl)c(C(F)(F)F)c3)cc2)ccn1 [sorafenib, reference compound] | significant inhibition |  |
| L3-11Y: heavy chain of huAbF46-H4-A1 (IgG2 Fc) with light chain SEQ ID NO: 73 (serine 27e replaced with tryptophan) (antibody) heavy: EVQLVESGGGLVQPGGSLRLSCAASGFTFTDYYMSWVRQAPGKGLEWLGFIRNKANGYTTEYSASVKGRFTISRDNSKNTLYLQMNSLRAEDTAVYYCARDNWFAYWGQGTLVTVSSASTKGPSVFPLAPCSRSTSESTAALGCLVKDYFPEPVTVSWNSGALTSGVHTFPAVLQSSGLYSLSSVVTVPSSNFGTQTYTCNVDHKPSNTKVDKTVERKCCVECPPCPAPPVAGPSVFLFPPKPKDTLMISRTPEVTCVVVDVSHEDPEVQFNWYVDGVEVHNAKTKPREEQFNSTFRVVSVLTVVHQDWLNGKEYKCKVSNKGLPAPIEKTISKTKGQPREPQVYTLPPSREEMTKNQVSLTCLVKGFYPSDIAVEWESNGQPENNYKTTPPMLDSDGSFFLYSKLTVDKSRWQQGNVFSCSVMHEALHNHYTQKSLSLSPGK light: DIQMTQSPSSLSASVGDRVTITCKSSQSLLAWGNQNNYLAWYQQKPGKAPKMLIIWASTRVSGVPSRFSGSGSGTDFTLTISSLQPEDFATYYCQQSYSRPYTFGQGTKVEIKRTVAAPSVFIFPPSDEQLKSGTASVVCLLNNFYPREAKVQWKVDNALQSGNSQESVTEQDSKDSTYSLSSTLTLSKADYEKHKVYACEVTHQGLSSPVTKSFNRGEC |  | equal or higher activity of Akt phosphorylation inhibition |

— US20140154251A1, “ANTI C-MET ANTIBODY AND USES THEREOF” (Samsung Electronics Co., Ltd., priority 2011, published 2014)
